Source: patent publication US20110171193A1, “COMPOSITIONS AND METHODS FOR TREATING PULMONARY HYPERTENSION” (THE BOARD OF TRUSTEES OF THE UNIVERSITY OF ILLINOIS, priority 2008, published 2011)
Numbering of substitutions follows the chain as printed. “Also recorded” adds a separate entry of the source.

Key:
purified PKG-1 = molecular target: T1, purified PKG-1 (Bos taurus, UniProt P00516); assay: In vitro kinase assay of purified PKG-1 after peroxynitrite or DETA NONOate; type: biochemical; settings: even at 100 μM, 30 min in dark at RT
T1 construct: purchased Promega
T1 sequence (P00516 1-671): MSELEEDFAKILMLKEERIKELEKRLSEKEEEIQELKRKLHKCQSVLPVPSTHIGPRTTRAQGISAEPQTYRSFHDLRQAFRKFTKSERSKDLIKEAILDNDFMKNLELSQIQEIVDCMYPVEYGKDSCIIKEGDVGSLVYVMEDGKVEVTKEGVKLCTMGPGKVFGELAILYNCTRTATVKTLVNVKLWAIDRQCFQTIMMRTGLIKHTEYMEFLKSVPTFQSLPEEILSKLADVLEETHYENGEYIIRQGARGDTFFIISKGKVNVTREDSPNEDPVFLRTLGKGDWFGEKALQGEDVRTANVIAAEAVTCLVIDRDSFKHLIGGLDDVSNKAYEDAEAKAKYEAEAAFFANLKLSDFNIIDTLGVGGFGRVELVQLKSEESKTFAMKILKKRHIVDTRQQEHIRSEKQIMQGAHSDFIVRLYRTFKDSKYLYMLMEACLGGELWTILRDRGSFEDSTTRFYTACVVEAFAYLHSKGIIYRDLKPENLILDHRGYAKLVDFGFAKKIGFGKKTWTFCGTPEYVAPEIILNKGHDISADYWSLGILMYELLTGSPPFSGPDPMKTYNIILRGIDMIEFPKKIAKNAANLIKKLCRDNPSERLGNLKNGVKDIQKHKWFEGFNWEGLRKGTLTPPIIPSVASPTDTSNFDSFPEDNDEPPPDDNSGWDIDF
Experimental: (§1) PKG Kinase Assay. In vitro activity of PKG was determined by measuring the transfer of the [g-^32P] phosphate group of ATP to the specific PKG substrate, BPDEtide (Calbiochem) in the absence or presence of exogenous 2.5 mM cGMP as described in Example 13. PKG activity is expressed as picmoles of ^32P incorporated into PKG substrate per min per microgram protein.
To address the role of peroxynitrite in the mechanism of the observed impairment of PKG activity, we treated human pulmonary artery smooth muscle cells with 3-morpholinosydnonimine (SIN-1), the superoxide and NO donor that forms peroxynitrite simultaneously (30). […] FIG. 9A relates to dose-dependent impairment of PKG activity by peroxynitrite. Purified […] (Promega) was incubated with peroxynitrite at indicated concentrations for 14 min at RT or with DETA NONOate (NONOate) for 30 min in dark at RT. Kinase activity was then assayed. Data is expressed mean+/−SD (n=3). *, P<0.05 versus control (0 μM). FIG. 9B relates to screening of PKG-1a mutants with in vitro kinase assay. At 48 hr post-transfection, myc-tagged WT and PKG-1a mutants were immunoprecipitated with anti-myc beads and aliquoted for incubation with either peroxynitrite (100 μM) or the same amount of 0.1 N NaOH only (CTL). […] PKG activity was expressed as pmoles/min/μg cell lysates. […] Data are expressed as mean±SD (n=3), *, P<0.05 versus either PKG-1a mutant. […]

PKG = molecular target: T2, PKG (Homo sapiens, UniProt Q13976); assay: PKG kinase activity in human pulmonary artery smooth muscle cells after SIN-1; type: cell-based
T2 construct: endogenous in cells; host or cells: primary human pulmonary artery smooth muscle cells
T2 sequence (Q13976 1-671): T1 sequence (P00516 1-671) with K265T, N275S
Experimental: In vitro activity of PKG was determined by measuring the transfer of the [g-32P] phosphate group of ATP to the specific PKG substrate, BPDEtide (Calbiochem) in the absence or presence of exogenous 2.5 mM cGMP. The assay was carried out in a total volume of […] containing 150 mM BPDEtide, 10 mM HEPES, 35 mM b-glycerophosphate, 4 mM magnesium acetate, 5 mM PKI (a synthetic protein kinase A inhibitor, Calbiochem), 0.5 mM EDTA, 200 mM ATP, and 2 mCi of [g-32P]ATP (specific activity 3,000 Ci/mmol, GE Amersham). The mixture was incubated at […] for 12 min and terminated by spotting […] aliquots of mixture on phosphocellulose papers (P81, Whatman). The papers were then washed and counted in a liquid scintillation counter. PKG activity is expressed as picmoles of 32P incorporated into PKG substrate per minute per milligram protein.
(§2) To test the hypothesis that peroxynitrite modifies PKG through tyrosine nitration thereby impairing kinase activity, we treated subconfluent human pulmonary artery smooth muscle cells with 3-morpholinosydnonimine (SIN-1), a donor of superoxide and NO, which spontaneously forms peroxynitrite at the two concentrations used. […] Each cell lysate (50 mg) was used for immunoprecipitation with an anti-PKG-I antibody and tyrosine nitration of PKG-I was detected by Western blot with anti-nitrotyrosine antibody (NT). Each lysate (15 mg) was used for direct immunoblotting with anti-PKG-I and anti-GAPDH, respectively. CTL, control. […] Data are shown as mean±SD (n=3). *, P<0.001 versus CTL; **, P<0.001 versus CTL.
as §1

PKG-I = molecular target: T3, PKG-I (Homo sapiens, UniProt Q13976); assay: PKG-I tyrosine nitration in human pulmonary artery smooth muscle cells after SIN-1 (IP / anti-nitrotyrosine Western blot); type: cell-based
T3 construct: primary cultures of human pulmonary artery smooth muscle cells were immunoprecipitated overnight with anti-PKG-I; endogenous in cells; host or cells: primary human pulmonary artery smooth muscle cells
T3 sequence (Q13976 1-671): T1 sequence (P00516 1-671) with K265T, N275S
Experimental: Western blot analyses were performed using anti-Cav1 (1:1000, Santa Cruz Biotechnology), anti-eNOS (1:1000, Upstate Biotechnology), and anti-PKG-I (1 mg/ml, a generous gift from Dr. X-P. Du at Department of Pharmacology, University of Illinois at Chicago). The same blots were reprobed with either anti-a-actin (1:400, Santa Cruz Biotechnology) or anti-GAPDH (1:2000, Santa Cruz Biotechnology) as a loading control. To detect PKG-I tyrosine nitration, protein lysates from either mouse lungs or primary cultures of human pulmonary artery smooth muscle cells were immunoprecipitated overnight with anti-PKG-I and then probed with anti-nitrotyrosine (1:2500, Cayman Chemical).
as §2
Molecular Analysis. […]

Cav1−/− mice = assay: RVSP in Cav1−/− mice with PH; type: in vivo, mouse; settings: 8 month old Cav1−/− mice; 5 mg/kg, i.p. daily for 6 wk
Experimental: RVSP was determined as follows. Briefly, following anesthesia, mice were prepared for catheterization. A 1.4 F pressure transducer catheter (Millar Instruments) was carefully inserted via the right external jugular vein into the right ventricle to obtain measurements of RVSP using the Acknowledge software (Biopac Systems, Inc.). To determine lung vascular resistance, mice were anesthetized and prepared for perfusion. Pulmonary arterial (Ppa) and venous (Pv) pressures were monitored continuously through the pulmonary arterial and left atrial cannula, which were connected to a pressure transducer. […] Ppa was measured at steady-state and was plotted against the flow, which was measured by weighing the effluent collected over a one-minute period. […]
To determine whether pharmacological inhibition of eNOS in Cav1^−/− mice can reverse PH, we administered N-Nitro-L-Arginine Methyl Ester (L-NAME), a NOS inhibitor, to Cav1^−/− mice following onset of PH. […] Data are expressed as mean±SD (n=5-7). *, P=0.023 WT versus Cav1^−/−;**, P=0.015 Cav-L versus Cav1^−/−; #, P>0.5 Cav-D versus Cav1^−/−. […] Data are expressed as mean±SD (n=5-7). *, P=0.002 WT versus Cav1^−/−; **, P=0.013 Cav-L versus Cav1^−/−; #, P=0.8 Cav-D versus Cav1^−/−.
Hemodynamic Measurements. RVSP was determined with a 1.4 F pressure transducer catheter (Millar Instruments) and the Acknowledge software (Biopac Systems, Inc.). […]

**Q.** With NCCN(CCN)/[N+]([O-])=N/O [DETA NONOate] as the compound, how does the PKG activity (purified PKG-1) read?
**A.** failed to suppress PKG activity

**Q.** Which “PKG kinase activity after addition of cGMP” value (PKG; SIN-1 30 min, after addition of 2.5 mM of cGMP) does the source give for N=c1c[n+](N2CCOCC2)[n-]o1 [SIN-1, 3-morpholinosydnonimine] here?
**A.** significant decrease of PKG activity; also recorded: significantly decreased PKG kinase activity; also recorded: impaired kinase activity

**Q.** And the “PKG kinase activity, basal” value (PKG; SIN-1 30 min, basal state)?
**A.** significant decrease of PKG activity; also recorded: significantly decreased PKG kinase activity; also recorded: impaired kinase activity

**Q.** What about the PKG kinase activity (PKG; SIN-1 at 0.1 mM) of the same compound?
**A.** did not decrease PKG kinase activity

**Q.** And the PKG tyrosine nitration (PKG-I; SIN-1 at 0.1 mM)?
**A.** only minimal PKG tyrosine nitration

**Q.** What about the PKG tyrosine nitration (PKG-I; SIN-1 concentration, 30 min) of the same compound?
**A.** significant PKG tyrosine nitration; also recorded: marked PKG tyrosine nitration; also recorded: PKG1 tyrosine nitration

**Q.** How did the RVSP (Cav1−/− mice) turn out when “manganese (III) tetrakis (1-methyl-4-pyridyl) porphyrin pentachloride [MnTMPyP]” was run?
**A.** reduced RVSP
